{
  "source": "patent EP4813989A1",
  "about": "“CRYSTAL, PHARMACEUTICAL COMPOSITION, PREPARATION METHOD THEREFOR, AND USE THEREOF” (TYK Medicines, Inc., priority 2023, dated 2025)",
  "key": {"[1]": {"assay": "Pharmacokinetic test in SD rats", "format": "in vivo", "conditions": "rats; for AUC(0-inf) / AUC(0-t) / Cmax / MRT last: 10 mg/kg; for Plasma concentration: 10 mg/kg p.o.", "description": "Experimental animals: healthy adult SD rats, male, 6 in total, divided into two groups, with 3 rats per group, aged 6-8 weeks; and body weight approximately 200-300 g. The rats were fed in rat cages, and fasted (for at least 10 hours) with free access to water one day before the experiment. On the day of experiment, the rats were weighed and marked at the tail respectively. Blank blood samples were collected respectively before drug administration. The blood samples were collected via the tail vein. Drug administration method: intragastric gavage (p.o.): intragastric gavage with drug suspension; preparation of drug suspension: approximately 10 mg of test sample was accurately weighed, dissolved in 5% DMSO (calculated proportion), and vortexed with 10% solutol HS-15 and 85% saline to obtain a suspension with a concentration of 1.0 mg/mL; and the suspension was freshly prepared before use.\nSample collection: the rats were administered a single oral dose of 10mg/kg via intragastric gavage (p.o.). Timing was started immediately after the administration was completed, and blood samples were collected at 0.5, 1, 2, 4, 6, 8, 12 and 24 hours after administration. A volume of 0.1mL of whole blood was collected into EDTA-Na2 anticoagulant tubes, mixed by inverting 3-4 times, centrifuged at 10000 g for 5 minutes at 4°C to separate the plasma, and then the plasma was stored at -80 °C until testing. The blood samples were collected via the tail vein.\nSample preparation: 1) the samples were thawed, and 15 µL of unknown plasma samples before or after administration, standard series solutions, and single blank and double blank samples were respectively transferred into 1.5 mL centrifuge tubes. 2) 15 µL of protein precipitant (methanol) and 400 µL of internal standard solution (verapamil in methanol, approximately 10 ng/mL) were added to each sample sequentially, vortexed for 2 minutes, and then centrifuged at 4°C and 12000 rpm for 10 minutes. 3) The supernatant was collected for LC-MS/MS detection.\nAnalytical conditions: liquid chromatography conditions: liquid chromatography system: Shimadzu Nexera X2; chromatographic column: Agilent ZORBAX XDB-C18 3.5 (2.1 × 50 mm); column temperature: 35°C; mobile phase: A-5% acetonitrile (0.1% formic acid in water), B-95% acetonitrile (0.1% formic acid in water); injection volume: 3 µL; and\nflow rate: 0.5 mL/min. Gradient elution was employed, and an elution program can be seen in the table below.\nMass spectrometry conditions: mass spectrometric analysis was carried out using an electrospray ionization (ESI) source in a positive ion mode with multiple reaction monitoring (MRM). The mass spectrometer ion source parameters and compound detection parameters can be seen in the table below.\nPK parameter processing: pharmacokinetic (PK) parameters were calculated according to a plasma concentration from individual plasma concentration and corresponding sampling time data using Phoenix WinNonlin software with a non-compartmental model. (1) The PK parameters used for pharmacokinetic evaluation included: Cmax, AUC0-t, AUC0-∞, Tmax and t1/2.\n(2) The parameters used for bioequivalence evaluation: Cmax, AUC0-t and AUC0-∞ were used for the bioequivalence evaluation.\nCmax: maximum plasma concentration measured within specified period, presented as measured value.\nTmax: time measured to reach maximum plasma concentration, presented as measured value. If the maximum value occurred at more than one time point, Tmax was defined as the first time point at which this value was observed.\nAUC0-t: area under plasma concentration-time curve from 0 to last time point t.\nAUC0-∞: area under plasma concentration-time curve from 0 to infinity. Ct was the last measured concentration, and λz was the terminal elimination rate constant. AUC0−∞ = AUC0−t + (Ct)/(λz)AUC0−∞ = AUC0−t + (Ct)/(λz) [formula]\nt1/2: elimination or terminal half-life, estimated by ln2/λz."}, "[2]": {"assay": "Approximate solubility in organic solvents at room temperature", "format": "physicochemical"}, "[3]": {"conditions": "rat, in vivo, po, intragastric gavage 10 mg/kg, Mean"}, "[4]": {"conditions": "rat, in vivo, po, intragastric gavage 10 mg/kg, No. 1"}, "[5]": {"conditions": "rat, in vivo, po, intragastric gavage 10 mg/kg, No. 2"}, "[6]": {"conditions": "rat, in vivo, po, intragastric gavage 10 mg/kg, No. 3"}},
  "data": [
    {"smiles": "C[C@@H](Nc1ccn2ncc(C3=NOC(C)(C)N3)c2n1)c1cc(F)cc(F)c1F", "note": "[crystal form A]", "values": [
      {"measurement": "AUC(0-inf)", "setting": "[1]; [3]", "result": 4800, "unit": "ng·h/mL"},
      {"measurement": "AUC(0-t)", "setting": "[1]; [3]", "result": 4730, "unit": "ng·h/mL"},
      {"measurement": "Cmax", "setting": "[1]; [3]", "result": 578, "unit": "ng/mL"},
      {"measurement": "MRT last", "setting": "[1]; [3]", "result": 6.09, "unit": "h"},
      {"measurement": "AUC(0-inf)", "setting": "[1]; [4]", "result": 4390, "unit": "ng·h/mL"},
      {"measurement": "AUC(0-t)", "setting": "[1]; [4]", "result": 4320, "unit": "ng·h/mL"},
      {"measurement": "Cmax", "setting": "[1]; [4]", "result": 652, "unit": "ng/mL"},
      {"measurement": "MRT last", "setting": "[1]; [4]", "result": 6.09, "unit": "h"},
      {"measurement": "AUC(0-inf)", "setting": "[1]; [5]", "result": 3580, "unit": "ng·h/mL"},
      {"measurement": "AUC(0-t)", "setting": "[1]; [5]", "result": 3550, "unit": "ng·h/mL"},
      {"measurement": "Cmax", "setting": "[1]; [5]", "result": 459, "unit": "ng/mL"},
      {"measurement": "MRT last", "setting": "[1]; [5]", "result": 5.52, "unit": "h"},
      {"measurement": "AUC(0-inf)", "setting": "[1]; [6]", "result": 6440, "unit": "ng·h/mL"},
      {"measurement": "AUC(0-t)", "setting": "[1]; [6]", "result": 6330, "unit": "ng·h/mL"},
      {"measurement": "Cmax", "setting": "[1]; [6]", "result": 623, "unit": "ng/mL"},
      {"measurement": "MRT last", "setting": "[1]; [6]", "result": 6.66, "unit": "h"},
      {"measurement": "Tmax", "setting": "[1]; [4]", "result": 4, "unit": "h"},
      {"measurement": "Plasma concentration", "setting": "[1]; 0.5 h, Mean", "result": 224, "unit": "ng/mL"},
      {"measurement": "Plasma concentration", "setting": "[1]; 0.5 h, No. 1", "result": 220, "unit": "ng/mL"},
      {"measurement": "Plasma concentration", "setting": "[1]; 0.5 h, No. 2", "result": 168, "unit": "ng/mL"},
      {"measurement": "Plasma concentration", "setting": "[1]; 0.5 h, No. 3", "result": 285, "unit": "ng/mL"},
      {"measurement": "Plasma concentration", "setting": "[1]; 1 h, Mean", "result": 300, "unit": "ng/mL"},
      {"measurement": "Plasma concentration", "setting": "[1]; 1 h, No. 1", "result": 170, "unit": "ng/mL"},
      {"measurement": "Plasma concentration", "setting": "[1]; 1 h, No. 2", "result": 257, "unit": "ng/mL"},
      {"measurement": "Plasma concentration", "setting": "[1]; 1 h, No. 3", "result": 474, "unit": "ng/mL"},
      {"measurement": "Plasma concentration", "setting": "[1]; 2 h, Mean", "result": 457, "unit": "ng/mL"},
      {"measurement": "Plasma concentration", "setting": "[1]; 2 h, No. 1", "result": 448, "unit": "ng/mL"},
      {"measurement": "Plasma concentration", "setting": "[1]; 2 h, No. 2", "result": 453, "unit": "ng/mL"},
      {"measurement": "Plasma concentration", "setting": "[1]; 2 h, No. 3", "result": 470, "unit": "ng/mL"},
      {"measurement": "Plasma concentration", "setting": "[1]; 4 h, Mean", "result": 578, "unit": "ng/mL"},
      {"measurement": "Plasma concentration", "setting": "[1]; 4 h, No. 1", "result": 652, "unit": "ng/mL"},
      {"measurement": "Plasma concentration", "setting": "[1]; 4 h, No. 2", "result": 459, "unit": "ng/mL"},
      {"measurement": "Plasma concentration", "setting": "[1]; 4 h, No. 3", "result": 623, "unit": "ng/mL"},
      {"measurement": "Plasma concentration", "setting": "[1]; 6 h, Mean", "result": 395, "unit": "ng/mL"},
      {"measurement": "Plasma concentration", "setting": "[1]; 6 h, No. 1", "result": 307, "unit": "ng/mL"},
      {"measurement": "Plasma concentration", "setting": "[1]; 6 h, No. 2", "result": 277, "unit": "ng/mL"},
      {"measurement": "Plasma concentration", "setting": "[1]; 6 h, No. 3", "result": 602, "unit": "ng/mL"},
      {"measurement": "Plasma concentration", "setting": "[1]; 8 h, Mean", "result": 312, "unit": "ng/mL"},
      {"measurement": "Plasma concentration", "setting": "[1]; 8 h, No. 1", "result": 240, "unit": "ng/mL"},
      {"measurement": "Plasma concentration", "setting": "[1]; 8 h, No. 2", "result": 238, "unit": "ng/mL"},
      {"measurement": "Plasma concentration", "setting": "[1]; 8 h, No. 3", "result": 459, "unit": "ng/mL"},
      {"measurement": "Plasma concentration", "setting": "[1]; 12 h, Mean", "result": 93.8, "unit": "ng/mL"},
      {"measurement": "Plasma concentration", "setting": "[1]; 12 h, No. 1", "result": 88.3, "unit": "ng/mL"},
      {"measurement": "Plasma concentration", "setting": "[1]; 12 h, No. 2", "result": 47.2, "unit": "ng/mL"},
      {"measurement": "Plasma concentration", "setting": "[1]; 12 h, No. 3", "result": 146, "unit": "ng/mL"},
      {"measurement": "Plasma concentration", "setting": "[1]; 24 h, Mean", "result": 12.7, "unit": "ng/mL"},
      {"measurement": "Plasma concentration", "setting": "[1]; 24 h, No. 1", "result": 11.6, "unit": "ng/mL"},
      {"measurement": "Plasma concentration", "setting": "[1]; 24 h, No. 2", "result": 5.25, "unit": "ng/mL"},
      {"measurement": "Plasma concentration", "setting": "[1]; 24 h, No. 3", "result": 21.3, "unit": "ng/mL"},
      {"measurement": "HL_", "setting": "[1]; intragastric gavage 10 mg/kg, Mean", "result": 3.51, "unit": "h"},
      {"measurement": "HL_", "setting": "[1]; intragastric gavage 10 mg/kg, No. 1", "result": 3.76, "unit": "h"},
      {"measurement": "HL_", "setting": "[1]; intragastric gavage 10 mg/kg, No. 2", "result": 3.07, "unit": "h"},
      {"measurement": "HL_", "setting": "[1]; intragastric gavage 10 mg/kg, No. 3", "result": 3.70, "unit": "h"},
      {"measurement": "solubility", "setting": "[2]; Acetone", "result": "> 40", "unit": "mg/mL"},
      {"measurement": "solubility", "setting": "[2]; Acetonitrile", "result": "> 44", "unit": "mg/mL"},
      {"measurement": "solubility", "setting": "[2]; Dichloromethane", "result": "> 40", "unit": "mg/mL"},
      {"measurement": "solubility", "setting": "[2]; Ethanol", "result": "> 38", "unit": "mg/mL"},
      {"measurement": "solubility", "setting": "[2]; Ethyl acetate", "result": "> 44", "unit": "mg/mL"},
      {"measurement": "solubility", "setting": "[2]; Isopropanol", "result": "> 42", "unit": "mg/mL"},
      {"measurement": "solubility", "setting": "[2]; Isopropyl acetate", "result": "> 38", "unit": "mg/mL"},
      {"measurement": "solubility", "setting": "[2]; Methanol", "result": "> 36", "unit": "mg/mL"},
      {"measurement": "solubility", "setting": "[2]; Methyl isobutyl ketone", "result": "> 40", "unit": "mg/mL"},
      {"measurement": "solubility", "setting": "[2]; Trichloromethane", "result": "> 44", "unit": "mg/mL"}
    ]}
  ]
}
